Results as given in patent US10655126B2, “Methods and compositions to treat drug-induced diseases and conditions” (University of Vermont and State Agricultural College, priority 2015, dated 2020).

How the values were obtained:
[1] = cited from earlier work
CoxIV = CoxIV level in human MCF7 cells, Western blot (control protein); format: cell-based; conditions: MCF7 cells transfected with h-siMCJ 5 nM, harvested after 30 h; FIG. 10
Experimental: (§1) A human siMCJ has been tested in a human MCF7 cell line in vitro. […] Transfection methods included transecting human MCF7 cells transfected with h-siMCJ (5 nM) and after 30 h cells were harvested and MCJ expression was examined by Western blot analysis using an anti-human MCJ antibody. CoxIV (mitochondrial protein) and GAPDH were also examined as controls.

MCJ [2] = test: MCJ knockdown in human MCF7 cells, Western blot; format: cell-based; conditions: MCF7 cells transfected with h-siMCJ 5 nM, harvested after 30 h; FIG. 10
Experimental: as §1

wild-type hepatocytes = test: Protection of wild-type hepatocytes from acetaminophen toxic injury by siRNA for MCJ; format: cell-based
MCJ [3] = test: MCJ expression in liver in vivo by Western blot; parameters: species or system mouse
Experimental: Analysis for MCJ expression in liver by Western blot analysis was performed as previously described (REF) using a specific anti-MCJ antibody. Expression of GAPDH was used as a control. Band intensities were quantified using the ImageJ software and normalized to the control (GAPDH).
(§2) siMCJ oligos (double strand RNA oligos, see for example, SEQ ID NO: 22) containing the designed sequence were synthesized for in vivo studies (Ambion invivo siRNA). As a delivery system Invivofectamine 3.0 (Life Technology) was used because it is claimed to obtain high efficiency of in vivo delivery of siRNA into hepatocytes. Following the recommendation of the manufacturer, 1.7 mg/Kg was used in combination with invivofectamine 3.0. Preparation of siRNA with the Invivofectamine was performed as recommended by the manufacturer. Mice were administered with a single i.v. dose of siMCJ/invivofectamine in 150 μl.

wild-type mice = test: Acetaminophen (APAP) mouse model of drug-induced liver injury: liver histology and serum ALT; format: in vivo
Experimental: Alanine aminotransferase (ALT) aspartate aminotransferase (AST) and bilirubin were determined in serum samples using the Selectra Junior SpinLab 100 analyzer (Vital Scientific) and the SpinReact reagents according to manufacturer's protocols.
Paraffin-embedded liver samples were sectioned, dewaxed, and hydrated. Immunohistochemistry (IHC) was performed using an anti-MCJ antibody and nuclei were counter-stained with hematoxylin. Quantification of staining area of each sample was analyzed using the Frida software and represented as the % of the stained area relative to the total area (power field). Ten fields per sample were pictured and analyzed. For liver histology, liver sections from paraffin-embedded tissue were stained with hematoxylin and eoxin (H&E staining). Frida software was used for quantification.
as §2

Molecule: CC(=O)N[C@@H](CS)C(=O)O [NAC, N-acetylcysteine]
- hepatoprotective effect when given after 8 h ([1]; more than 8 h after uptake of acetaminophen): minimal to known
- time after uptake of acetaminophen within which administration has a hepatoprotective effect ([1]; patients with acute hepatic failure due to overdose of acetaminophen): ≤ 8 h

Molecule: h-siMCJ: human siRNA sequence gaagatttcaactectagat (as printed), double stranded RNA oligo (GAAGATTTCAACTCCTAGCTT; listed as DNA, chemistry not given here; listed as Homo sapiens)
- levels of CoxIV (another mitochondrial protein) (CoxIV): not affecting the levels of CoxIV
- MCJ protein expression (MCJ [2]): sufficient to knockdown MCJ protein expression

Molecule: siMCJ: double strand RNA oligos (see for example SEQ ID NO: 22, mouse siRNA sequence gcgagaggctagtcttatt), given i.v. with Invivofectamine 3.0 (GCGAGAGGCTAGTCTTATT; Invivofectamine 3.0 formulation, further chemistry not given here; listed as Mus musculus)
- protection from toxic injury caused by acetaminophen (wild-type hepatocytes): protected wild-type hepatocytes from the development of toxic injury
- levels of endogenous MCJ in the liver (MCJ [3]; 24 h after single i.v. dose of siMCJ 1.7 mg/Kg with invivofectamine, wild-type mice, FIG. 7): almost undetectable
- restoration of MCJ levels in liver (MCJ [3]; after 9 days of administration, single i.v. dose of siMCJ, FIG. 7): not a full restoration of MCJ levels
- levels of MCJ in the liver of APAP-mice (MCJ [3]; siMCJ i.v. 20 h before acetaminophen 360 mg/Kg i.p., harvested 24 h after acetaminophen, relative to APAP-mice without siMCJ, FIG. 8A): markedly reduced
- levels of MCJ in the liver (MCJ [3]; siMCJ i.v. 24 h after acetaminophen 360 mg/Kg i.p., harvested 48 h after acetaminophen, FIG. 9A): almost undetectable
- time for which levels of MCJ in liver remained very low (MCJ [3]; single i.v. dose of siMCJ 1.7 mg/Kg with invivofectamine, FIG. 7): at least 7 days
- areas of tissue damage in liver sections (H&E histology) (wild-type mice; siMCJ i.v. 20 h before acetaminophen 360 mg/Kg i.p., harvested 24 h after acetaminophen, FIG. 8B): almost not detected
- quantification of the damage area in the livers (wild-type mice; siMCJ i.v. 20 h before acetaminophen, n=5, p<0.05, FIG. 8C): protective effect
- levels of ALT in serum (wild-type mice; siMCJ i.v. 24 h after acetaminophen 360 mg/Kg i.p., harvested 48 h after acetaminophen, p<0.01 vs control mice, FIG. 9B): drastically lower
